# In US20110160167A1, “Steroid Derivatives Acting As Glucocorticosteroid Receptor Agonists” (AstraZeneca AB, priority 2007, published 2011):
# Biological target: T1, recombinant human GR (Homo sapiens, UniProt P04150)
# T1 construct: purchased Panvera/Invitrogen P2812 (kit P2893)
# T1 sequence (P04150 1-777): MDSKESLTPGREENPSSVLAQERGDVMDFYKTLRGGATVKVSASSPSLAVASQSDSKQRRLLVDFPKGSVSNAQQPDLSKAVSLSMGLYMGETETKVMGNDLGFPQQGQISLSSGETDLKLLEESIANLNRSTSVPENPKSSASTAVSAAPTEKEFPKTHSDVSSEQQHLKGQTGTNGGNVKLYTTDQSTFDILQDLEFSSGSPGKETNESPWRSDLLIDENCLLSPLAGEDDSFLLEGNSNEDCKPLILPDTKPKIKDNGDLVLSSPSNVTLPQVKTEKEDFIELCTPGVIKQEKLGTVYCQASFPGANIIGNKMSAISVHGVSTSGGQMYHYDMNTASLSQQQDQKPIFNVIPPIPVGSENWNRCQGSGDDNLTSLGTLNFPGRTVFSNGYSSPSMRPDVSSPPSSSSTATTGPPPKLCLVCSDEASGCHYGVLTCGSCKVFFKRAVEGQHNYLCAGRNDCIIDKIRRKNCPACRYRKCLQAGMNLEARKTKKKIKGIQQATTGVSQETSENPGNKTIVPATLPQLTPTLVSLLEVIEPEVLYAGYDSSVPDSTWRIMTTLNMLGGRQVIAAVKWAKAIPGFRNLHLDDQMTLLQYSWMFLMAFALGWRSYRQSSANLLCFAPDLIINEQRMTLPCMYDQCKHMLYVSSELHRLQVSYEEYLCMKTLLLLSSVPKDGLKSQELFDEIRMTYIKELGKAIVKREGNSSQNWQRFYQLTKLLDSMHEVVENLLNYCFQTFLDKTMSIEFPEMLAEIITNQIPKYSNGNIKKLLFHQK
# Assay: Human Glucocorticoid Receptor (GR) Assay (fluorescence polarization, Panvera/Invitrogen kit)
# Conditions: GS Red tracer, 2 hours at room temperature, 100% control 10 μM Dexamethasone, read-out: Inhibition of GR binding, IC50
# Description: Human Glucocorticoid Receptor (GR) Assay The assay is based on a commercial kit from Panvera/Invitrogen (Part number P2893). The assay technology is fluorescence polarization. The kit utilises recombinant human GR (Panvera, Part number P2812), a Fluoromone™ labelled tracer (GS Red, Panvera, Part number P2894) and a Stabilizing Peptide 10× (Panvera, Part number P2815). The GR and Stabilizing Peptide reagents are stored at −70° C. while the GS Red is stored at −20° C. Also included in the kit are 1M DTT (Panvera, Part number P2325, stored at −20° C.) and GR Screening buffer 10× (Panvera, Part number P2814, stored at −70° C. initially but once thawed stored at room temperature). Avoid repeated freeze/thaws for all reagents. The GR Screening buffer 10× comprises 100 mM potassium phosphate, 200 mM sodium molybdate, 1 mM EDTA and 20% DMSO. Test compounds (1 μL) and controls (1 μL) in 100% DMSO were added to black polystyrene 384-well plates (Greiner low volume black flat-bottom, part number 784076). 0% control was 100% DMSO and 100% control was 10 μM Dexamethasone. Background solution (8 μL; assay buffer 10×, Stabilizing Peptide, DTT and ice cold MQ water) was added to the background wells. GS Red solution (7 μL; assay buffer 10×, Stabilizing Peptide, DTT, GS Red and ice cold water) was added to all wells except background wells. GR solution (7 μL; assay buffer 10×, Stabilizing Peptide, DTT, GR and ice cold water) was added to all wells. The plate was sealed and incubated in a dark at room temperature for 2 hours. The plate was read in an Analyst plate reader (LJL Biosystems/Molecular Devices Corporation) or other similar plate reader capable of recording fluorescence polarization (excitation wavelength 530 nm, emission wavelength 590 nm and a dichroic mirror at 561 nm).
row,SMILES,IC50 [nM]
1,"CCC[C@H]1O[C@@H]2C[C@H]3[C@@H]4CCC5=Cc6c(cnn6-c6ccc(F)c(CN7CCC(CO)CC7)c6)C[C@]5(C)[C@H]4[C@@H](O)C[C@]3(C)[C@]2(C(=O)CO)O1 [Example 14, 1-[(4aR,4bS,5S,6aS,6bS, 8S,9aR,10aS,10bS)-1-(4-fluoro-3-{[4-(hydroxymethyl)-piperidin-1-yl]methyl}phenyl)-5-hydroxy-4a,6a-dimethyl-8-propyl-4,4a,4b,5,6,6a,9a,10, 10a,10b,11,12-dodecahydro[1,3]dioxolo [3′,4′]cyclopenta [1′,2′:5,6]naphtho[1,2-f]indazol-6b(1H)-yl]-2-hydroxyethanone trifluoroacetic acid]",47
2,"CCC[C@H]1O[C@@H]2C[C@H]3[C@@H]4CCC5=Cc6c(cnn6-c6ccc(F)c(CN7CCSCC7)c6)C[C@]5(C)[C@H]4[C@@H](O)C[C@]3(C)[C@]2(C(=O)CO)O1 [Example 8, 1-[(4aR,4bS,5S,6aS,6bS, 8S,9aR,10aS,10bS)-1-[4-fluoro-3-(thiomorpholin-4-ylmethyl)phenyl]-5-hydroxy-4a,6a-dimethyl-8-propyl-4,4a,4b,5,6,6a,9a,10, 10a,10b,11,12-dodecahydro[1,3]dioxolo [3′,4′]cyclopenta [1′,2′:5,6]naphtho[1,2-f]indazol-6b(1H)-yl]-2-hydroxyethanone trifluoroacetic acid]",16
3,"CCC[C@@H]1O[C@@H]2C[C@H]3[C@@H]4CCC5=Cc6c(cnn6-c6ccc(F)c(CN7CCOCC7)c6)C[C@]5(C)[C@H]4[C@@H](O)C[C@]3(C)[C@]2(C(=O)CO)O1 [Example 1, 1-[(4aR,4bS,5S,6aS,6bS,8R,9aR,10aS,10bS)-1-[4-fluoro-3-(morpholin-4-ylmethyl)phenyl]-5-hydroxy-4a,6a-dimethyl-8-propyl-4,4a,4b,5,6,6a,9a,10,10a,10b,11,12-dodecahydro[1,3]-dioxolo[3′,4′]cyclopenta-[1′,2′:5,6]naphtho[1,2-f]indazol-6b(1H)-yl]-2-hydroxyethanone trifluoroacetic acid]",8
4,"CCC[C@@H]1O[C@@H]2C[C@H]3[C@@H]4CCC5=Cc6c(cnn6-c6ccc(F)cc6)C[C@]5(C)[C@H]4[C@@H](O)C[C@]3(C)[C@]2(C(=O)CO)O1 [Example 18, 1-[(4aR,4bS,5S,6aS,6bS,8R,9aR,10aS,10bS)-1-(4-Fluorophenyl)-5-hydroxy-4a,6a-dimethyl-8-propyl-4,4a,4b,5,6,6a,9a,10,10a,10b,11,12-dodecahydro[1,3]dioxolo[3′,4′]-cyclopenta[1′,2′:5,6]naphtho[1,2-f]indazol-6b(1H)-yl]-2-hydroxyethanone]",2.3
5,"CCC[C@@H]1O[C@@H]2C[C@H]3[C@@H]4CCC5=Cc6c(cnn6-c6ccc(F)c(CN7CCN(C)CC7)c6)C[C@]5(C)[C@H]4[C@@H](O)C[C@]3(C)[C@]2(C(=O)CO)O1 [Example 4, 1-[(4aR,4bS,5S,6aS,6bS, 8R,9aR,10aS,10bS)-1-{4-fluoro-3-[(4-methylpiperazin-1-yl)methyl]phenyl}-5-hydroxy-4a,6a-dimethyl-8-propyl-4,4a,4b,5,6,6a,9a,10, 10a,10b,11,12-dodecahydro[1,3]dioxolo [3′,4′]cyclopenta [1′,2′:5,6]naphtho[1,2-f]indazol-6b(1H)-yl]-2-hydroxyethanone trifluoroacetic acid]",21
6,"CCC[C@@H]1O[C@@H]2C[C@H]3[C@@H]4CCC5=Cc6c(cnn6-c6ccc(F)c(CNCCCO)c6)C[C@]5(C)[C@H]4[C@@H](O)C[C@]3(C)[C@]2(C(=O)CO)O1 [Example 11, 1-[(4aR,4bS,5S,6aS,6bS, 8R,9aR,10aS,10bS)-1-(4-fluoro-3-{[(3-hydroxypropyl)amino]methyl}phenyl)-5-hydroxy-4a,6a-dimethyl-8-propyl-4,4a,4b,5,6,6a,9a,10, 10a,10b,11,12-dodecahydro[1,3]dioxolo [3′,4′]cyclopenta [1′,2′:5,6]naphtho[1,2-f]indazol-6b(1H)-yl]-2-hydroxyethanone trifluoroacetic acid]",34
7,"CCC[C@H]1O[C@@H]2C[C@H]3[C@@H]4CCC5=Cc6c(cnn6-c6ccc(F)c(C(=O)OC)c6)C[C@]5(C)[C@H]4[C@@H](O)C[C@]3(C)[C@]2(C(=O)CO)O1 [Example 23, Methyl 2-fluoro-5-[(4aR,4bS,5S,6aS,6bS,8S,9aR,10aS,10bS)-6b-glycoloyl-5-hydroxy-4a,6a-dimethyl-8-propyl-4a,4b,5,6,6a,6b,9a,10,10a,10b,11,12-dodecahydro[1,3]dioxolo[3′,4′]cyclopenta[1′,2′:5,6]naphtho[1,2-f]indazol-1(4H)-yl]benzoate]",5.9
8,"CCC[C@@H]1O[C@@H]2C[C@H]3[C@@H]4CCC5=Cc6c(cnn6-c6ccc(F)c(CN7CCCC7)c6)C[C@]5(C)[C@H]4[C@@H](O)C[C@]3(C)[C@]2(C(=O)CO)O1 [Example 3, 1-[(4aR,4bS,5S,6aS,6bS, 8R,9aR,10aS,10bS)-1-[4-fluoro-3-(pyrrolidin-1-ylmethyl)phenyl]-5-hydroxy-4a,6a-dimethyl-8-propyl-4,4a,4b,5,6,6a,9a,10, 10a,10b,11,12-dodecahydro[1,3]dioxolo [3′,4′]cyclopenta [1′,2′:5,6]naphtho[1,2-f]indazol-6b(1H)-yl]-2-hydroxyethanone]",37
9,CCC[C@H]1O[C@@H]2C[C@H]3[C@@H]4CCC5=Cc6c(cnn6-c6ccc(F)c(CN7CCOCC7)c6)C[C@]5(C)[C@H]4[C@@H](O)C[C@]3(C)[C@]2(C(=O)CO)O1 [Example 2],8.7
10,"CCC[C@H]1O[C@@H]2C[C@H]3[C@@H]4CCC5=Cc6c(cnn6-c6ccc(F)cc6)C[C@]5(C)[C@H]4[C@@H](O)C[C@]3(C)[C@]2(C(=O)CO)O1 [Example 19, 1-[(4aR,4bS,5S,6aS,6bS,8S,9aR,10aS,10bS)-1-(4-Fluorophenyl)-5-hydroxy-4a,6a-dimethyl-8-propyl-4,4a,4b,5,6,6a,9a,10,10a,10b,11,12-dodecahydro[1,3]dioxolo-[3′,4′]cyclopenta[1′,2′:5,6]naphtho[1,2-f]indazol-6b(1H)-yl]-2-hydroxyethanone]",2.7
11,"CCC[C@H]1O[C@@H]2C[C@H]3[C@@H]4CCC5=Cc6c(cnn6-c6ccc(F)c(CO)c6)C[C@]5(C)[C@H]4[C@@H](O)C[C@]3(C)[C@]2(C(=O)CO)O1 [Example 17, 1-[(4aR,4bS,5S,6aS,6bS,8S,9aR,10aS,10bS)-1-[4-Fluoro-3-(hydroxymethyl)phenyl]-5-hydroxy-4a,6a-dimethyl-8-propyl-4,4a,4b,5,6,6a,9a,10,10a,10b,11,12-dodecahydro[1,3]dioxolo[3′,4′]cyclopenta[1′,2′:5,6]naphtho[1,2-f]indazol-6b(1H)-yl]-2-hydroxyethanone]",6.6
12,"CCC[C@@H]1O[C@@H]2C[C@H]3[C@@H]4CCC5=Cc6c(cnn6-c6ccc(F)c(CN7CCSCC7)c6)C[C@]5(C)[C@H]4[C@@H](O)C[C@]3(C)[C@]2(C(=O)CO)O1 [Example 7, 1-[(4aR,4bS,5S,6aS,6bS, 8R,9aR,10aS,10bS)-1-[4-fluoro-3-(thiomorpholin-4-ylmethyl)phenyl]-5-hydroxy-4a,6a-dimethyl-8-propyl-4,4a,4b,5,6,6a,9a,10, 10a,10b,11,12-dodecahydro[1,3]dioxolo [3′,4′]cyclopenta [1′,2′:5,6]naphtho[1,2-f]indazol-6b(1H)-yl]-2-hydroxyethanone trifluoroacetic acid]",12
